Values joined by “and” are separate entries in the source; they are usually repeats but may differ in a detail not shown here. Equal entries are not always repeated. Inconclusive results and toxic doses are left out.
System: L1210 leukemia ip in BDF1 mice, survival T/C
Test: NCI In Vivo Anticancer Drug Screen. Data for tumor model L1210 Leukemia (intraperitoneal) in B6D2F1 (BDF1) mice
Details: higher = longer survival
In short: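 Mice bearing the transplanted tumor received compound or vehicle. Survival of the treated group was divided by that of the vehicle-treated control group to give the ratio.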

[1] = endpoint: mean survival time, dose: 100.0 mg/kg/injection, schedule: Q01DX001 (ip), vehicle: carboxymethylcellulose (CMC)
[2] = endpoint: mean survival time, dose: 200.0 mg/kg/injection, schedule: Q01DX001 (ip), vehicle: carboxymethylcellulose (CMC)
[3] = endpoint: mean survival time, dose: 400.0 mg/kg/injection, schedule: Q01DX001 (ip), vehicle: carboxymethylcellulose (CMC)
[4] = endpoint: mean survival time, dose: 50.0 mg/kg/injection, schedule: Q01DX009 (ip), vehicle: Klucel (hydroxypropylcellulose) (HPC)
[5] = endpoint: mean survival time, dose: 100.0 mg/kg/injection, schedule: Q01DX009 (ip), vehicle: Klucel (hydroxypropylcellulose) (HPC)
[6] = endpoint: mean survival time, dose: 200.0 mg/kg/injection, schedule: Q01DX009 (ip), vehicle: Klucel (hydroxypropylcellulose) (HPC)
[7] = endpoint: mean survival time, dose: 100.0 mg/kg/injection, schedule: Q04DX003 (ip), vehicle: saline with Tween-80
[8] = endpoint: mean survival time, dose: 200.0 mg/kg/injection, schedule: Q04DX003 (ip), vehicle: saline with Tween-80
[9] = endpoint: mean survival time, dose: 400.0 mg/kg/injection, schedule: Q04DX003 (ip), vehicle: saline with Tween-80
[10] = endpoint: mean survival time, dose: 100.0 mg/kg/injection, schedule: Q01DX001 (ip), vehicle: Klucel (hydroxypropylcellulose) (HPC)
[11] = endpoint: mean survival time, dose: 200.0 mg/kg/injection, schedule: Q01DX001 (ip), vehicle: Klucel (hydroxypropylcellulose) (HPC)
[12] = endpoint: mean survival time, dose: 400.0 mg/kg/injection, schedule: Q01DX001 (ip), vehicle: Klucel (hydroxypropylcellulose) (HPC)
[13] = endpoint: mean survival time, dose: 50.0 mg/kg/injection, schedule: Q04DX003 (ip), vehicle: Klucel (hydroxypropylcellulose) (HPC)
[14] = endpoint: mean survival time, dose: 100.0 mg/kg/injection, schedule: Q04DX003 (ip), vehicle: Klucel (hydroxypropylcellulose) (HPC)
[15] = endpoint: mean survival time, dose: 200.0 mg/kg/injection, schedule: Q04DX003 (ip), vehicle: Klucel (hydroxypropylcellulose) (HPC)
[16] = endpoint: mean survival time, dose: 400.0 mg/kg/injection, schedule: Q04DX003 (ip), vehicle: Klucel (hydroxypropylcellulose) (HPC)
[17] = endpoint: mean survival time, dose: 100.0 mg/kg/injection, schedule: Q01DX009 (ip), vehicle: saline with Tween-80
[18] = endpoint: mean survival time, dose: 200.0 mg/kg/injection, schedule: Q01DX009 (ip), vehicle: saline with Tween-80
[19] = endpoint: mean survival time, dose: 400.0 mg/kg/injection, schedule: Q01DX009 (ip), vehicle: saline with Tween-80

SMILES: CC1C[N-]CC(C)C1.CC1C[N-]CC(C)C1.CC1C[N-]CC(C)C1.CC1C[N-]CC(C)C1.[Cl][Rh][Cl] (stereo not drawn)
- T/C (endpoint: mean survival time, dose: 1.5 mg/kg/injection, schedule: Q01DX009 (ip), vehicle: gum acacia): 98 % of control
- T/C (endpoint: mean survival time, dose: 3.0 mg/kg/injection, schedule: Q01DX009 (ip), vehicle: gum acacia): 96 % of control
- T/C (endpoint: mean survival time, dose: 6.0 mg/kg/injection, schedule: Q01DX009 (ip), vehicle: gum acacia): 100 % of control
- T/C (endpoint: mean survival time, dose: 12.5 mg/kg/injection, schedule: Q04DX003 (ip), vehicle: gum acacia): 100 % of control
- T/C (endpoint: mean survival time, dose: 25.0 mg/kg/injection, schedule: Q04DX003 (ip), vehicle: gum acacia): 93 % of control

SMILES: On1cnc(=S)c2[nH]cnc21
- T/C [1]: 98 % of control
- T/C [2]: 98 % of control
- T/C (endpoint: mean survival time, dose: 250.0 mg/kg/injection, schedule: Q01DX Z (ip), vehicle: carboxymethylcellulose (CMC)): 112 % of control
- T/C [3]: 98 % of control
- T/C (endpoint: mean survival time, dose: 500.0 mg/kg/injection, schedule: Q01DX001 (ip), vehicle: carboxymethylcellulose (CMC)): 100 % of control
- T/C (endpoint: mean survival time, dose: 750.0 mg/kg/injection, schedule: Q01DX001 (ip), vehicle: carboxymethylcellulose (CMC)): 113 % of control
- T/C (endpoint: mean survival time, dose: 750.0 mg/kg/injection, schedule: Q01DX Z (ip), vehicle: carboxymethylcellulose (CMC)): 156 % of control
- T/C (endpoint: mean survival time, dose: 1000.0 mg/kg/injection, schedule: Q01DX001 (ip), vehicle: carboxymethylcellulose (CMC)): 117 % of control

SMILES: COC(=O)CCNCCSC(=O)c1ccccc1
- T/C (endpoint: mean survival time, dose: 100.0 mg/kg/injection, schedule: Q04DX003 (ip), vehicle: acetone): 103 % of control
- T/C (endpoint: mean survival time, dose: 200.0 mg/kg/injection, schedule: Q04DX003 (ip), vehicle: acetone): 105 % of control
- T/C (endpoint: mean survival time, dose: 400.0 mg/kg/injection, schedule: Q04DX003 (ip), vehicle: acetone): 102 % of control

SMILES: COC(=O)c1cccc(N=NN(C)C)c1
- T/C [4]: 105 % of control
- T/C [5]: 119 % of control
- T/C [6]: 108 % of control
- T/C (endpoint: median survival time, dose: 23.0 mg/kg/injection, schedule: Q01DX009 (ip), vehicle: steriod suspending solution): 110 % of control
- T/C (endpoint: median survival time, dose: 65.0 mg/kg/injection, schedule: Q01DX001 (ip), vehicle: steriod suspending solution): 100 % of control
- T/C (endpoint: median survival time, dose: 65.0 mg/kg/injection, schedule: Q04DX003 (ip), vehicle: steriod suspending solution): 105 % of control
- T/C (endpoint: median survival time, dose: 108.0 mg/kg/injection, schedule: Q01DX001 (ip), vehicle: steriod suspending solution): 100 % of control
- T/C (endpoint: median survival time, dose: 108.0 mg/kg/injection, schedule: Q04DX003 (ip), vehicle: steriod suspending solution): 110 % of control
- T/C (endpoint: median survival time, dose: 180.0 mg/kg/injection, schedule: Q01DX001 (ip), vehicle: steriod suspending solution): 110 % of control
- T/C (endpoint: median survival time, dose: 300.0 mg/kg/injection, schedule: Q01DX001 (ip), vehicle: steriod suspending solution): 110 % of control
- T/C (endpoint: median survival time, dose: 833.0 mg/kg/injection, schedule: Q01DX001 (ip), vehicle: steriod suspending solution): 100 % of control

SMILES: C1COCCN1
- T/C (endpoint: mean survival time, dose: 25.6 mg/kg/injection, schedule: Q04DX002 (ip), vehicle: saline with Tween-80): 101 % of control
- T/C (endpoint: mean survival time, dose: 64.0 mg/kg/injection, schedule: Q04DX002 (ip), vehicle: saline with Tween-80): 101 % of control
- T/C [7]: 98 % of control
- T/C (endpoint: mean survival time, dose: 160.0 mg/kg/injection, schedule: Q04DX002 (ip), vehicle: saline with Tween-80): 101 % of control
- T/C [8]: 101 % of control
- T/C (endpoint: mean survival time, dose: 400.0 mg/kg/injection, schedule: Q04DX002 (ip), vehicle: saline with Tween-80): 101 % of control
- T/C [9]: 95 % of control

SMILES: CCc1cccc[n+]1Cc1ccccc1
- T/C (endpoint: mean survival time, dose: 50.0 mg/kg/injection, schedule: Q01DX009 (ip), vehicle: saline): 90 % of control

SMILES: O=[N+]([O-])c1ccc(S(=O)[O-])cc1.O=[N+]([O-])c1ccc(S(=O)[O-])cc1.[Zn+2]
- T/C (endpoint: mean survival time, dose: 75.0 mg/kg/injection, schedule: Q01DX001 (ip), vehicle: saline): 102 % of control
- T/C (endpoint: mean survival time, dose: 150.0 mg/kg/injection, schedule: Q01DX001 (ip), vehicle: saline): 110 % of control

SMILES: CC(=O)c1ccc(Cl)c([N+](=O)[O-])c1
- T/C [10]: 91 % of control
- T/C [5]: 105 % of control
- T/C [11]: 97 % of control
- T/C [6]: 100 % of control
- T/C [12]: 96 % of control

SMILES: NCc1cc(=O)[nH]c(=O)[nH]1
- T/C (endpoint: mean survival time, dose: 100.0 mg/kg/injection, schedule: Q04DX003 (ip), vehicle: saline): 104 % of control
- T/C (endpoint: mean survival time, dose: 400.0 mg/kg/injection, schedule: Q04DX003 (ip), vehicle: saline): 89 % of control

SMILES: O=C(O)CSC(SCC(=O)O)c1ccccc1Cl
- T/C [13]: 96 % of control
- T/C [14]: 100 % of control
- T/C [15]: 96 % of control

SMILES: O=C(NC(CO)C(O)c1ccc([N+](=O)[O-])cc1)C(Cl)Cl (stereo not drawn)
- T/C [7]: 102 % of control
- T/C [8]: 101 % of control
- T/C [9]: 106 % of control

SMILES: O=C(Nc1ccc(O)cc1)OCc1ccccc1
- T/C (endpoint: mean survival time, dose: 45.0 mg/kg/injection, schedule: Q04DX003 (ip), vehicle: Klucel (hydroxypropylcellulose) (HPC)): 105 % of control
- T/C [4]: 102 % of control
- T/C [13]: 91 % of control
- T/C (endpoint: mean survival time, dose: 65.0 mg/kg/injection, schedule: Q04DX003 (ip), vehicle: Klucel (hydroxypropylcellulose) (HPC)): 101 % of control
- T/C [10]: 109 % of control
- T/C [5]: 104 % of control
- T/C [14]: 95 % of control
- T/C [11]: 106 % of control
- T/C [6]: 96 % of control
- T/C [15]: 105 % of control and 106 % of control
- T/C [12]: 97 % of control
- T/C (endpoint: mean survival time, dose: 400.0 mg/kg/injection, schedule: Q01DX009 (ip), vehicle: Klucel (hydroxypropylcellulose) (HPC)): 94 % of control
- T/C [16]: 98 % of control

SMILES: O=C1NC(=O)C(c2ccc(C(F)(F)F)cc2)(c2ccc(C(F)(F)F)cc2)N1
- T/C [17]: 98 % of control
- T/C [7]: 92 % of control
- T/C [18]: 90 % of control
- T/C [8]: 96 % of control
- T/C [19]: 86 % of control
- T/C [9]: 89 % of control

SMILES: CC1(C)Cc2cccc(C(O)(CCN3CCCCC3)c3ccccc3)c2O1 (stereo not drawn)
- T/C (endpoint: mean survival time, dose: 20.0 mg/kg/injection, schedule: Q01DX001 (ip), vehicle: Klucel (hydroxypropylcellulose) (HPC)): 96 % of control
- T/C (endpoint: mean survival time, dose: 40.0 mg/kg/injection, schedule: Q01DX001 (ip), vehicle: Klucel (hydroxypropylcellulose) (HPC)): 98 % of control
- T/C (endpoint: mean survival time, dose: 80.0 mg/kg/injection, schedule: Q01DX001 (ip), vehicle: Klucel (hydroxypropylcellulose) (HPC)): 92 % of control
- T/C [10]: 91 % of control

SMILES: O=C(/C=C/c1c(Cl)cccc1Cl)c1ccc([N+](=O)[O-])cc1
- T/C [14]: 103 % of control
- T/C [15]: 94 % of control
- T/C [16]: 94 % of control

SMILES: N#CN1CCCC1
- T/C (endpoint: mean survival time, dose: 44.0 mg/kg/injection, schedule: Q01DX Z (ip), vehicle: saline): 98 % of control
- T/C (endpoint: mean survival time, dose: 66.0 mg/kg/injection, schedule: Q01DX Z (ip), vehicle: saline): 102 % of control

SMILES: COC1=CC23CCN(C)C(CCc4cc(OC)c(OC)c(OC)c42)C3=CC1=O (stereo not drawn)
- T/C (endpoint: mean survival time, dose: 25.0 mg/kg/injection, schedule: Q04DX002 (ip), vehicle: saline): 114 % of control
- T/C (endpoint: mean survival time, dose: 50.0 mg/kg/injection, schedule: Q04DX002 (ip), vehicle: saline): 108 % of control
- T/C (endpoint: mean survival time, dose: 100.0 mg/kg/injection, schedule: Q04DX002 (ip), vehicle: saline): 111 % of control
- T/C (endpoint: mean survival time, dose: 200.0 mg/kg/injection, schedule: Q04DX002 (ip), vehicle: saline): 105 % of control
- T/C (endpoint: mean survival time, dose: 400.0 mg/kg/injection, schedule: Q04DX002 (ip), vehicle: saline): 103 % of control

SMILES: N#CC(c1ccccc1)C(c1ccccc1)C(C(=O)c1ccccc1)c1ccccc1 (stereo not drawn)
- T/C [17]: 100 % of control
- T/C [18]: 93 % of control
- T/C [19]: 90 % of control

SMILES: N/N=C1\c2ccccc2-c2ccc([N+](=O)[O-])cc21
- T/C [1]: 95 % of control
- T/C [2]: 93 % of control
- T/C [3]: 95 % of control

SMILES: CN(N)C(=N)N
- T/C (endpoint: mean survival time, dose: 100.0 mg/kg/injection, schedule: Q01DX009 (ip), vehicle: saline): 102 % of control
- T/C (endpoint: mean survival time, dose: 200.0 mg/kg/injection, schedule: Q01DX009 (ip), vehicle: saline): 101 % of control
- T/C (endpoint: mean survival time, dose: 400.0 mg/kg/injection, schedule: Q01DX009 (ip), vehicle: saline): 96 % of control

SMILES: CC1(C)c2ccccc2C(C)(C)[N+]1(C)C
- T/C (endpoint: mean survival time, dose: 100.0 mg/kg/injection, schedule: Q01DX001 (ip), vehicle: other): 101 % of control

From PubChem BioAssay AID248 (DTP/NCI, 2004)
